The source of these data is paper PMC8162438, “Cancer cell-selective modulation of mitochondrial respiration and metabolism by potent organogold(III) dithiocarbamates” (Chemical Science, 2020).

As usually defined, the IC50 is the concentration needed to halve the response being measured. Higher therefore signals weaker potency.

Bounds are passed on as bounds.

This test has as its system MRC5. As to the kind of experiment: MTT cell viability, human fetal lung fibroblasts MRC5. The class given is cell-based. Particulars: 72 h. The procedure:
All the gold(III) dithiocarbamate compounds display remarkable cell killing potential in a panel of breast, ovarian, lung and leukemia cancers. Preliminary studies focused on different cancer cell lines (MDA-MB-231, MDA-MB-175, and A2780), an immortalized normal retinal epithelial cell line (RPE-NEO) and human fetal lung fibroblasts (MRC5) (Fig. S111–S129 ^†). These adherent cells were exposed to a serial-diluted concentration of all ten compounds for 72 h. The cells were subsequently treated with 3-(4,5-dimethylthiazol-2-yl)-2,5-diphenyltetrazolium bromide (MTT) solutions, dissolved with DMSO and the absorbance at 570 nm was measured with a plate-reader.
In Vitro Biological Assays
Cell Culture. All cell lines were purchased from ATCC and routinely grown in a humidified incubator at 37 °C with 5-10% CO 2. MDA-MB-231, MDA-MB-175, MRC5, RPE-NEO, H460, and K562 were grown in DMEM supplemented with 10% FBS, 1% amphotericin and 1% penicillin/streptomycin. A2780 cells were grown in RPMI supplemented with 10% FBS, 1% amphotericin, and 1% penicillin/streptomycin, and 4 mM glutamine. All supplements along with PBS and trypsin-EDTA were purchased from Corning Inc. and used as is. […]
Cell Viability of 1a-1e and 2a-2e (Adherent Cell Lines). The cell viability of all 10 complexes were performed in MDA-MB-231, MDA-MB-175, A2780, RPE-NEO and MRC5. The cell viability of compound 2a was also determined in H460. Cells were grown to confluency and trypsin was added to detach and harvest cells. The cells were washed with 2 mL of PBS and suspended in 10 mL of the appropriate media. The cells were centrifuged at 2000 rpm for 5 minutes and the pellet washed with 2 mL of PBS then suspended in 5 mL of the appropriate […]
media. The cells were plated at a density of 2,000 cells/well in a 96-well clear bottom plate and allowed to adhere overnight at 37 °C with 5-10% CO 2. The compounds were prepared as a stock in DMSO and used fresh. The compounds were added at seven concentrations with a 3x serial dilution starting at 50 µM for the highest concentration and incubated at 37 °C for 72 h with 5-10% CO 2. The medium was removed and a solution of MTT (100 µL, prepared by dissolving MTT at 5 mg/mL and diluting by 10x with DMEM) was added to each well and incubated for 4 h at 37 ° C with 5-10% CO 2. The dye was removed from each well and 100 µL of DMSO was added to induce cell lysis. The plates were read using a Genios plate reader (λ = 570 nm). The experiment was performed in triplicate and data are plotted as the mean ± s.e.m. (n = 3). Data for 2a can be found in the main text (Figure 6) and the other complexes can be seen in the supplementary figures (S111 – S129). […]
Cells were grown to confluency and centrifuged at 2000 rpm for 5 minutes to collect the cell pellet. The cells were washed with 5 mL of PBS, suspended in 5 mL of DMEM, and centrifuged again at 2000 rpm for 5 minutes to collect the pellet. The pellet was then washed with 2 mL of PBS and suspended in 5 mL of DMEM. The cells were plated at density of 2,000 cells/well in a 96-well white bottom plate. 2a was prepared as a stock solution […]
10% CO 2. The cells were removed from the incubator and allowed to rest at room temperature for 30 minutes. To each designated well was then added 20 µL of CellTiter-Glo solution and orbitally shaken for 5 minutes and the luminescence (1000 ms integration and 150 ms gain) acquired on a Genios plate reader. The experiment was performed in triplicate. Data are plotted […]
Apoptosis Analysis. […]
A stock of 2a was prepared fresh in DMSO and added to the desired well at a concentration of 1 µM with a final volume of 2.5 mL and incubated for 4 h at 37 °C. A stock of H2O2 was prepared in PBS and the cells treated at a final concentration of 2 mM for 1 hour as a […]

`C[N+](C)=C1[S][Au-2]2([S]1)[c]1ccccc1C(=O)c1cccc[n+]12.F[P-](F)(F)(F)(F)F` (centres unmarked) [1a] yielded an IC50 of more than 50 µM. In the case of `C[N+](C)=C1[S][Au-2]2([S]1)[c]1ccccc1Cc1cccc[n+]12.F[P-](F)(F)(F)(F)F` (centres unmarked) [2a], the IC50 was more than 50 µM.
